Each structure is given as a SMILES string. Calls of active or inactive are those of the source.

Broadly, the half-life is the time needed for the level to fall by half in the phase considered. As usually defined, the IC50 is the concentration that gives 50% inhibition. Broadly, the AUC(0-inf) is the area under the concentration-time curve extrapolated to infinity. A higher AUC(0-inf) goes with more exposure.

A short description of data set [1]: Half life in C57BL/6J mouse plasma at 15 mg/kg, ip. The class given is ADME, organism-based.
A further data set deals with Histone deacetylase 3 (Homo sapiens, UniProt O15379). The experiment in a line: Inhibition of recombinant human HDAC3 using Ac-GAK(Ac)-AMC as substrate preincubated for 10 mins followed by substrate addition and measured after 30 mins by fluorescence-based assay.
Data set [2] can be described thus: Genotoxicity in Salmonella typhimurium TA100 at 5 to 100 uM in absence of liver S9 fraction by Ames test. The format is toxicity. Conditions: salmonella enterica subsp. enterica serovar typhimurium, s9, 100 µM; dose 5-100 µM. A general note: The Ames test detects mutagens through reverse mutation in bacteria.
The target in the next data set is T1, Histone deacetylase 8 (Homo sapiens, UniProt Q9BY41).
T1 sequence (Q9BY41 whole entry): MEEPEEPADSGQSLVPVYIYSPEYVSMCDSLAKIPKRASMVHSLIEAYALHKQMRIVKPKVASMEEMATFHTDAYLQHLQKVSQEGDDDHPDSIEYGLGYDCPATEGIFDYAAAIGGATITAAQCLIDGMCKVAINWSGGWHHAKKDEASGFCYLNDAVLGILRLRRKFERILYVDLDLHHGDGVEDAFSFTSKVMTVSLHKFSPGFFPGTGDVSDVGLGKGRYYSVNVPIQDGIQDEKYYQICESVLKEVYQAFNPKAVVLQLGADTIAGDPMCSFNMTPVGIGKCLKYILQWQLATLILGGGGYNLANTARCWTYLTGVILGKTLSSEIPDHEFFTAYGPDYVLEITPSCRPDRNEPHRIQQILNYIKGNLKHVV

Data set [3] is described as follows: Total AUC (0 to infinity) in C57BL/6J mouse brain at 15 mg/kg, ip. The class given is ADME, organism-based. Set-up: time AUCmax, route intraperitoneal, dose 15 mg/kg.
Data set [4] is described as follows: Half life in mouse liver s9 fraction. The format is ADME, subcellular.
The nature of data set [5]: Half life in CD1 mouse pooled liver microsomes assessed as parent compound remaining measured up to 60 mins in presence of NADPH by LC-MS/MS analysis. The format is ADME, Microsome. Conditions: CD1, mouse, pooled liver microsomes.
The nature of data set [6]: Half life in C57BL/6J mouse brain at 15 mg/kg, ip. The format is ADME, organism-based.
Data set [7] has as its target T2, Protein deacetylase HDAC6 (Mus musculus) (UniProt Q9Z2V5).
T2 sequence (whole entry): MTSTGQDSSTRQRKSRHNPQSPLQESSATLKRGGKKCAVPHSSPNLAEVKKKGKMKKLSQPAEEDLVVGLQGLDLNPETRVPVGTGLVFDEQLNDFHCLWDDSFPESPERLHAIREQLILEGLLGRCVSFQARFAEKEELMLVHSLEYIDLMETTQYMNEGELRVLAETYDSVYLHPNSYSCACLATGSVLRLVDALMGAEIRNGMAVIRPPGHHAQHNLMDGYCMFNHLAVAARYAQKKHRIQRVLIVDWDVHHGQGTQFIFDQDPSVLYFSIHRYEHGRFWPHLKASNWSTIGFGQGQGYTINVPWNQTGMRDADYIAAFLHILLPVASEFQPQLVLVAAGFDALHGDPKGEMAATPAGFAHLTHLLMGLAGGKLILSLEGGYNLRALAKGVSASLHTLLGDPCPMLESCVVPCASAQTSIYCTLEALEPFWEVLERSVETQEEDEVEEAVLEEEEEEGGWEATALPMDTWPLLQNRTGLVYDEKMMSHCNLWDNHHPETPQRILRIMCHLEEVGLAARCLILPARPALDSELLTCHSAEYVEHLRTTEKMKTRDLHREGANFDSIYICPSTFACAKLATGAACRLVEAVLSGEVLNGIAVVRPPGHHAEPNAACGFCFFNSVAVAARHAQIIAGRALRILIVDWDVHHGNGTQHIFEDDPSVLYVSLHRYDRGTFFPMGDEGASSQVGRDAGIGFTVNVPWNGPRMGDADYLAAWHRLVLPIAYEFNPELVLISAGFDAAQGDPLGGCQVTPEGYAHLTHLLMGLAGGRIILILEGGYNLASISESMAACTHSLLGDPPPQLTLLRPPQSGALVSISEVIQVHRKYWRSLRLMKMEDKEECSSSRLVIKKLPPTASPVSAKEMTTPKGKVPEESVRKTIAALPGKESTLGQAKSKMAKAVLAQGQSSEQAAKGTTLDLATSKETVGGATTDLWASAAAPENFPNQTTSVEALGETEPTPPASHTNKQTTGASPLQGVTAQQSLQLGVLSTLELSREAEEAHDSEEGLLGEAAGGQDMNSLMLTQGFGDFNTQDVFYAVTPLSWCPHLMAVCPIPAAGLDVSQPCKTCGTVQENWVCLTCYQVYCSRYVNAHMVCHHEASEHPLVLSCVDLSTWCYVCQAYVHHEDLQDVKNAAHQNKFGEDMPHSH
The experiment in a line: In vivo inhibition of HDAC6 in wild type mouse assessed as increase in alpha-tubulin acetylation in sciatic nerve tissue at 10 to 20 mg/kg, ip measured after 24 hrs by immunoblot analysis. The format is functional, organism-based. The following applies: dose 10-20 mg/kg.

Data set [8] can be described thus: Unbound AUC (0 to infinity) in C57BL/6J mouse plasma at 15 mg/kg, ip. The format is ADME, organism-based. Conditions: in vivo.
Data set [9] in a line: Half life in human liver s9 fraction. The format is ADME, subcellular.
The target of a further data set is T3, Histone deacetylase 11 (Homo sapiens, UniProt Q96DB2).
T3 sequence (Q96DB2 whole entry): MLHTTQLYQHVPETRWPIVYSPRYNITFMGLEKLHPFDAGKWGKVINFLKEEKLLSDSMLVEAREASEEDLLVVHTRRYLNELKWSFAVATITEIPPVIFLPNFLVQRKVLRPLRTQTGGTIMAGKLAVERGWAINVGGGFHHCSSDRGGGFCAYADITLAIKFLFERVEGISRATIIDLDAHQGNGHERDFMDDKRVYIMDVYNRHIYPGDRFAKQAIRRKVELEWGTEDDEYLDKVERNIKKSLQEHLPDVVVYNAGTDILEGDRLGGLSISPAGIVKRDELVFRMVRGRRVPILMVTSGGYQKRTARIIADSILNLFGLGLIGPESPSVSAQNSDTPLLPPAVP
Kind of data set: Inhibition of recombinant human HDAC11 expressed in HEK293T/17 cells using Boc-Lys(TFA)-AMC as substrate preincubated for 10 mins followed by substrate addition and measured after 30 mins by fluorescence-based assay.

Sequence of Histone deacetylase 3 (O15379 whole entry): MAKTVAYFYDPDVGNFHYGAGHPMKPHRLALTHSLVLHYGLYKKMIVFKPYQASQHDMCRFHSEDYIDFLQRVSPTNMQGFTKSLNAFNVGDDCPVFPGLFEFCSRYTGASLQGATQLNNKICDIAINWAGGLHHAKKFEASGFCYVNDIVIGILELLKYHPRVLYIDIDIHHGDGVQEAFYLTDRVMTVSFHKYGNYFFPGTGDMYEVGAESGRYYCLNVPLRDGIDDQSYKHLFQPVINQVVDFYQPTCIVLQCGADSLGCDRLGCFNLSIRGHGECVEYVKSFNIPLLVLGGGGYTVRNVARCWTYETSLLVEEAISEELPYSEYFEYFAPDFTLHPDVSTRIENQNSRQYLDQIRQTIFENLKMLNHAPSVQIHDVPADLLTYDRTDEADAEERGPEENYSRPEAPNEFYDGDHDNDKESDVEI
Description for Histone deacetylase 8: Inhibition of recombinant human HDAC8 using Boc-Lys(TFA)-AMC as substrate preincubated for 10 mins followed by substrate addition and measured after 30 mins by fluorescence-based assay

Turning to `NC(=O)c1ccc2c(c1)CCCN2Cc1ccc(C(=O)NO)cc1`, the half-life was 0.44 h in [1]; 3.55 h in [4]; 1.48 h in data set [5]; 2.9 h in data set [6]; greater than 16.7 h in data set [9]. Also, the IC50 at Histone deacetylase 3 came to 235 nM; against Histone deacetylase 8, 651 nM; on Histone deacetylase 11 it was 5310 nM. The Activity entry in data set [2] is “Non-Toxic”. Moreover, the AUC(0-inf) in data set [3] stood at 280 ng·h/mL. Further, the inhibition entry in data set [7] was “Active”. The molecule also showed a fAUC in [8] of 421 ng·h/mL.

The record behind these values is ChEMBL document CHEMBL4823254, “Tetrahydroquinoline-Capped Histone Deacetylase 6 Inhibitor SW-101 Ameliorates Pathological Phenotypes in a Charcot-Marie-Tooth Type 2A Mouse Model” (J Med Chem, 2021).
